From ChEMBL document CHEMBL5050861 (2021)
Values after ≈ are worked out from the molar mass of the structure shown.

Experiments:
[1] = Inhibition of recombinant mouse GALK1 using ATP as substrate incubated for 1 hr and measured by Kinase-Glo assay
[2] = Stability of compound in rat microsomes assessed as half-life; assay type: ADME, Microsome
[3] = Permeability of compound by PAMPA assay; assay type: ADME; settings: for Papp: read-out: permeability
[4] = Kinetic aqueous solubility of the compound; assay type: physicochemical; settings: buffer; read-out: Kinetic_solubility

IC50 ([1]; read-out: IC50) [µM]	half-life [2] [min]	Papp [3] [×10⁻⁶ cm/s]	solubility kinetic [4] [µg/mL]	IC50 [1]	permeability [3]	SMILES
15.3	> 30	< 14.9	< 1	–	–	CC1=C(C(=O)Nc2ccc(Br)cc2)C(c2ccccc2Cl)N=C(Nc2nc3ccccc3o2)N1 (centres undefined)
48.5	8.63	894	2.42 (≈ 4.46 µM)	–	–	CC1=C(C(=O)Nc2ccc(N3CCNCC3)cc2)C(c2ccccc2Cl)N=C(Nc2nc3ccccc3o2)N1 (centres undefined)
3.06	> 30	< 1	> 74	–	–	CC1=C(C(=O)Nc2ccnc(C(=O)O)c2)C(c2ccccc2Cl)N=C(Nc2nc3ccccc3o2)N1 (centres undefined)
3.43	> 30	< 7.3	< 1	–	–	CC1=C(C(=O)Nc2ccc([N+](=O)[O-])cc2)C(c2ccccc2Cl)N=C(Nc2nc3ccccc3o2)N1 (centres undefined)
6.85	> 30	< 1	52.6 (≈ 120 µM)	–	–	O=C1CC(C(=O)O)CC2=C1C(c1ccccc1Cl)N=C(Nc1nc3ccccc3o1)N2 (centres undefined)
13.7	10.3	< 17.4	< 1	–	–	COC(=O)Cc1cccc(NC(=O)C2=C(C)NC(Nc3nc4ccccc4o3)=NC2c2ccccc2Cl)c1 (centres undefined)
34.4	> 30	5	47.5 (≈ 90.3 µM)	–	–	CC1=C(C(=O)Nc2cccc(-c3nnn[nH]3)c2)C(c2ccccc2Cl)N=C(Nc2nc3ccccc3o2)N1 (centres undefined)
4.85	> 30	< 1	58.2 (≈ 118 µM)	–	–	O=C(O)CNC(=O)C1CC(=O)C2=C(C1)NC(Nc1nc3ccccc3o1)=NC2c1ccccc1Cl (centres undefined)
12.2	16.4	< 11.8	< 1	–	–	CC1=C(C(=O)Nc2ccc(-n3cccn3)cc2)C(c2ccccc2Cl)N=C(Nc2nc3ccccc3o2)N1 (centres undefined)
6.85	> 30	< 1	60 (≈ 119 µM)	–	–	CC1=C(C(=O)Nc2cccc(C(=O)O)n2)C(c2ccccc2Cl)N=C(Nc2nc3ccccc3o2)N1 (centres undefined)
19.3	6.56	–	1.8 (≈ 3.81 µM)	–	1424 10^-6 cm/s	CC1=C(C(=O)NCc2ccccn2)C(c2ccccc2Cl)N=C(Nc2nc3ccccc3o2)N1 (centres undefined)
19.3	> 30	< 1.3	60.6 (≈ 117 µM)	–	–	CC1=C(C(=O)NCc2cccc(C(=O)O)c2)C(c2ccccc2Cl)N=C(Nc2nc3ccccc3o2)N1 (centres undefined)
9.68	> 30	< 14.5	–	–	–	CC1=C(C(=O)Nc2ccc(O)cc2)C(c2ccccc2Cl)N=C(Nc2nc3ccccc3o2)N1 (centres undefined)
10.9	5.19	< 19.3	–	–	–	CC1=C(C(=O)NCc2ccccc2O)C(c2ccccc2Cl)N=C(Nc2nc3ccccc3o2)N1 (centres undefined)

The next lines start with the molecule.

SMILES	IC50 ([1]; read-out: IC50) [µM]	half-life [2] [min]	Papp [3] [×10⁻⁶ cm/s]	solubility kinetic [4] [µg/mL]	IC50 [1]	permeability [3]
CC1=C(C(=O)Nc2cc(C(=O)O)ccn2)C(c2ccc(C)cc2Cl)N=C(Nc2nc3ncccc3o2)N1 (centres undefined)	19.3	> 30	< 1	> 51	–	–
CC1=C(C(=O)Nc2cc(C(=O)O)ccn2)C(c2ccc(Br)cc2Cl)N=C(Nc2nc3ccc(F)cc3o2)N1 (centres undefined)	3.85	> 30	< 1.7	2.4 (≈ 4 µM)	–	–
CC1=C(C(=O)Nc2cc(C(=O)O)ccn2)[C@@H](c2ccc(C)cc2Cl)N=C(Nc2nc3cccc(N)c3o2)N1	21.7	> 30	< 1	> 78	–	–
CC1=C(C(=O)Nc2cc(C(=O)O)ccn2)C(c2ccc(C(=O)O)cc2Cl)N=C(Nc2nc3ccc(F)cc3o2)N1 (centres undefined)	15.3	> 30	< 1	> 83	–	–
CC1=C(C(=O)Nc2nnc(-c3cccnc3)s2)C(c2ccccc2Cl)N=C(Nc2nc3ccc(Cl)cc3o2)N1 (centres undefined)	–	> 30	< 10.3	< 1	Not Active	–
CC1=C(C(=O)Nc2cccc(-c3cn[nH]c3)c2)C(c2ccccc2Cl)N=C(Nc2nc3ccccc3o2)N1 (centres undefined)	38.5	> 30	< 25.4	< 1	–	–
CC1=C(C(=O)Nc2cc(C(=O)O)ccn2)C(c2cccc([N+](=O)[O-])c2Cl)N=C(Nc2nc3ccc(F)cc3o2)N1 (centres undefined)	34.4	> 30	< 1	> 84	–	–
CC1=C(C(=O)Nc2nnc(-c3cccnc3)s2)C(c2ccccc2Cl)N=C(Nc2nc3cc(Cl)ccc3o2)N1 (centres undefined)	19.3	> 30	< 3.4	< 1	–	–
CC1=C(C(=O)Nc2nnc(-c3cccnc3)s2)C(c2ccccc2Cl)N=C(Nc2nc3ccc(F)cc3o2)N1 (centres undefined)	38.5	> 30	< 9.9	< 1	–	–
COc1ccc([C@H]2N=C(Nc3nc4cccc(N)c4o3)NC(C)=C2C(=O)Nc2cc(C(=O)O)ccn2)c(Cl)c1	34.4	> 30	< 1	> 81	–	–
CC1=C(C(=O)Nc2cc(C(=O)O)ccn2)C(c2ccc(C)cc2Cl)N=C(Nc2nc3c(o2)CCCC3)N1 (centres undefined)	4.32	> 30	< 1.8	> 52	–	–
COc1ccc2nc(NC3=NC(c4ccccc4Cl)C(C(=O)Nc4nnc(-c5cccnc5)s4)=C(C)N3)oc2c1 (centres undefined)	21.7	> 30	< 4.4	< 1	–	–
CC1=C(C(=O)Nc2cc(C(=O)O)ccn2)[C@@H](c2ccccc2Cl)N=C(Nc2nc3ccc(F)cc3o2)N1	13.7	> 30	< 1	17.3 (≈ 33.2 µM)	–	–
CC1=C(C(=O)Nc2cc(C(=O)O)ccn2)C(c2cccc(N)c2Cl)N=C(Nc2nc3ccc(F)cc3o2)N1 (centres undefined)	17.2	> 30	< 1	> 79	–	–
CC1=C(C(=O)Nc2cc(C(=O)O)ccn2)C(c2ccc(-c3ccc(C)nc3)cc2Cl)N=C(Nc2nc3ccc(F)cc3o2)N1 (centres undefined)	1.22	> 30	< 1	> 90	–	–
CC1=C(C(=O)Nc2cc(C#N)ccn2)C(c2ccccc2Cl)N=C(Nc2nc3ccc(F)cc3o2)N1 (centres undefined)	4.85	> 30	< 6.8	< 1	–	–
CC1=C(C(=O)Nc2ccc(C(=O)O)cn2)C(c2ccccc2Cl)N=C(Nc2nc3ccc(F)cc3o2)N1 (centres undefined)	3.43	> 30	< 1	> 77	–	–
CC1=C(C(=O)Nc2cc(C(=O)O)ccn2)C(c2ccc(-n3ccnc3)cc2Cl)N=C(Nc2nc3ccc(F)cc3o2)N1 (centres undefined)	0.97	> 30	< 1	> 87	–	–
CC1=C(C(=O)Nc2nnc(-c3cccnc3)s2)C(c2ccccc2Cl)N=C(Nc2nc3cc(F)ccc3o2)N1 (centres undefined)	19.3	> 30	< 1.5	< 1	–	–
CC1=C(C(=O)Nc2nncs2)C(c2nn(C)cc2Br)N=C(Nc2nc3ccccc3o2)N1 (centres undefined)	19.3	> 30	–	6.4 (≈ 12.4 µM)	–	1044 10^-6 cm/s
COP(=O)(OC)C1=C(C)NC(Nc2nc3ccccc3o2)=NC1c1ccccc1Cl (centres undefined)	13.7	5.35	–	12.2 (≈ 27.3 µM)	–	1813.86 10^-6 cm/s
CC1=C(C(=O)Nc2cc(C(=O)O)ccn2)C(c2ccc(-c3cnc(C)nc3)cc2Cl)N=C(Nc2nc3ccc(F)cc3o2)N1 (centres undefined)	0.69	> 30	< 1	> 90	–	–
CNCCNC(=O)C1=C(C)NC(Nc2nc3ccc(F)cc3o2)=NC1c1ccccc1Cl (centres undefined)	6.11	–	> 30	> 67	–	–
COC(=O)c1ccnc(NC(=O)C2=C(C)NC(Nc3nc4ccc(F)cc4o3)=N[C@@H]2c2ccccc2Cl)c1	86.3	24.3	< 7.4	–	–	–
COC(=O)c1ccnc(NC(=O)C2=C(C)NC(Nc3nc4ccc(F)cc4o3)=N[C@H]2c2ccccc2Cl)c1	4.32	30.9	< 21.9	–	–	–
CC1=C(C(=O)Nc2cc(C(=O)O)ccn2)C(c2ccc(-c3ccccc3)cc2Cl)N=C(Nc2nc3ccc(F)cc3o2)N1 (centres undefined)	–	> 30	< 4.9	< 1	–	–
